Laboratory results as given in patent US20230102192A1, “THERAPIES FOR THE TREATMENT OF DISEASES AND DISORDERS ASSOCIATED WITH ABNORMAL EXPRESSION OF A NEURAL-ASSOCIATED GENE” (The Regents of the University of California, priority 2020, published 2023).
Entries after “also recorded” stand apart in the source; their conditions may differ.

Legend:
Assay type in all cases: cell-based, human
[1] = tested on: MECP2-mosaic (CTR/KO) neurospheres; test: Neurosphere size (diameter); settings: 8-week MECP2-mosaic neurospheres, P=0.79
From the text: Nefiracetam and PHA 543613 increase activity in MECP2-mosaic neurospheres. Because MECP2 resides on the X chromosome, random X-inactivation in females can produce a genetic pattern of mosaicism, with consequent phenotypic gradation, in which some cells express the normal allele while others are mutant. Therefore, as the next stage to evaluate the two drug candidates, a neurosphere model of MECP2 mosaicism was developed to mimic the female RTT brain by combining different proportions of control and MECP2-KO NPCs (see FIG. 7A-C). […] Calcium transient frequency in MECP2-mosaic neurospheres was increased by treatment with Nefiracetam in isolation (1 μM, P<0.05) and when combined with PHA 543613 (10 μM, P<0.001; FIG. 7H), but calcium transient amplitude was unaffected by either compound (P=0.255; FIG. 7I). To investigate the impact of the drug treatments on the electrophysiological properties of the MECP2-mosaic model, neurospheres treated with 1 μM Nefiracetam, 1 μM PHA 543613, or both Nefiracetam and PHA 543613 were plated to perform MEA analysis. […] Because each drug conferred a benefit to MECP2-mosaic neurospheres, both Nefiracetam and PHA 543613 were retained for further evaluation in a more complex human neurodevelopmental model.

[2] = tested on: MECP2-KO cortical organoids; test: RNA sequencing and gene ontology analysis of cortical organoids; settings: 1 μM for one month, two-month old organoids
Experimental: RNA-seq analyses. RNA-seq analyses were performed as described in Marchetto et al. (Nature 504:525-529 (2013)). Briefly, RNeasy Mini kit (Qiagen) isolated RNA for library preparation (Illumina TruSeq RNA Sample Preparation Kit; San Diego, Calif., USA) and sequencing (Illumina HiSeq2000, 50 bp paired-end reads, 50 million high-quality sequencing fragments per sample on average).
Gene ontology (GO) analysis. RNA-seq enrichment was with plugins WebGestalt and Cytoscape and considered only statistically significant categories (P<0.05). Genes evaluated for differential expression set the background for GO annotation and enrichment analysis.
Nefiracetam and PHA 543613 rescue network activity in MECP2-KO cortical organoids. The therapeutic efficacy of Nefiracetam and PHA 543613 was evaluated with cortical organoids, a complex, three-dimensional human neurodevelopmental model that closely recapitulates aspects of human fetal neurodevelopment. MECP2-KO and control cortical organoids were generated, as described above (see FIG. 9A, and FIG. 10A-B). One-month old cortical organoids were treated for another month with either Nefiracetam (1 μM) or PHA 543613 (1 μM), and experiments and analyses were performed using organoids at 2-3 months of age. […]

control neurons = test: Effect of treatment on control neurons
Experimental: (§1) Pharmacologic treatment. One-month old cortical organoids were treated for 1 mo with either Nefiracetam (10 μM) or PHA 543613 (10 μM) during media changes.
Pharmacologic screening identifies two compounds that specifically reverse MECP2-KO phenotypes. 14 commercially available pharmacologic compounds with mechanisms of action that counteract the synapse and neurotransmitter pathologies were selected and which are identified in FIG. 5B. […] MECP2-KO and control neurons were treated with each of the 14 compounds and employed a tiered series of assays to identify those that could selectively rescue MECP2-KO pathology without affecting controls. […] The capacity of these compounds to increase pre and post co-localized synaptic puncta in MECP2-KO neurons were evaluated, again eliminating the drugs that affected control neurons (see FIG. 5F-G, and FIG. 6C-D).

MECP2-KO neurons = test: Calcium imaging of neurons; settings: vs untreated KO
Experimental: as §1
Calcium imaging. Calcium imaging was performed as described in Chailangkarn et al. Briefly, PSC-derived neuronal networks were lentivirally transduced with a Syn::RFP reporter construct. Cultures were washed with Krebs HEPES buffer and incubated with Fluo-4AM (Molecular Probes/Invitrogen, Carlsbad, Calif., USA). A Hamamatsu ORCA-ER digital camera (Hamamatsu Photonics, Japan) with 488 nm filter on an Olympus IX81 inverted fluorescence confocal microscope (Olympus Optical, Tokyo, Japan) acquired 5000 frames at 28 Hz in a 256×256 pixel region (100× magnification). Images were acquired with MetaMorph7.7 (MDS Analytical Technologies, Sunnyvale, Calif., USA) and analyzed with ImageJ and Matlab7.2 (Mathworks, Natick, Mass., USA). Syn::RFP+ neurons were selected following tetrodotoxin blockade of calcium transients. A 95th-percentile threshold of amplitude for calcium spikes was set for event detection; signal amplitude is presented as fluorescence change (ΔF/F) following background subtraction.

Row | Structure (SMILES) | neurosphere diameter [1] | expression of genes in pathways relevant to synaptic function [2] | effect on controls (control neurons) | frequency of calcium oscillations (MECP2-KO neurons) | percentage of active neurons (MECP2-KO neurons)
1 | Cc1cccc(C)c1NC(=O)CN1CCCC1=O [Nefiracetam, nefiracetam] | did not alter | promoted expression; also recorded: upregulated genetic expression | leaving controls unaffected | increases; also recorded: significantly increase | increase
2 | O=C(N[C@H]1CN2CCC1CC2)c1cc2ccoc2cn1 [PHA 543613, N-[(3R)-1-azabicyclo[2.2.2]oct-3-yl]furo[2,3-c]pyridine-5-carboxamide] | did not alter | promoted expression; also recorded: upregulated expression | leaving controls unaffected | increases; also recorded: significantly increase | increase
